According to patent publication US20200069617A1, “USE OF N-ACETYLCYSTEINE AMIDE IN THE TREATMENT OF ACETAMINOPHEN OVERDOSE” (priority 2015, published 2020):

How the values were obtained:
[1] = tested on: APAP-induced hepatotoxicity; test: Protective effects in APAP-induced hepatotoxicity (oxidative stress and organ injury markers); format: in vivo, C57BL/6 mice
Method: Studies were then performed to evaluate the protective effects of NACA in APAP-induced hepatotoxicity using male C57BL/6 mice that were intraperitoneally injected with 400 mg/kg of APAP after 15 hours of fasting. The therapeutic potentials of NAC and NACA were compared by administering NAC/NACA (106 mg/kg) after 1.5 hours of APAP administration and sacrificing the mice 4 hours after the APAP administration. The GSH/GSSG ratio, a crucial antioxidant parameter, and malondialdehyde (MDA) levels were measured in liver tissue.
Alanine aminotransferase (ALT) and glutamate dehydrogenase levels were also measured in serum (FIG. 3). These are markers of livery injury.

[2] = tested on: APAP overdose; test: Survival of mice after APAP overdose; format: in vivo, C57 BL/6 mice; details: FIG. 10
Method: Studies were then performed where C57 BL/6 mice received APAP overdose of 500 mg/kg. NACA or NAC was administered (106 mg/kg) 1.5 hours post APAP and at every 12 hours thereafter until 72 hours. The APAP group had 6 mice and the NAC and NACA groups contained 4. Mice treated with NACA/APAP survived for 150 hours, while mice treated with APAP or NAC/APAP had 60% and 30% survival respectively (FIG. 10).

| SMILES | oxidative stress in a number of tissues ([1]; APAP administration) | liver injury (serum ALT and glutamate dehydrogenase levels) ([1]; APAP alone, FIG. 3) | blood urea nitrogen (BUN) ([1]; APAP alone, FIG. 9) | serum creatine kinase (CK) ([1]; APAP alone, FIG. 9) | survival ([2]; APAP overdose of 500 mg/kg alone) [%] | survival ([2]; APAP 500 mg/kg, 106 mg/kg 1.5 hours post APAP and every 12 hours until 72 hours) [%] |
| --- | --- | --- | --- | --- | --- | --- |
| CC(=O)Nc1ccc(O)cc1 [APAP, N-acetyl-p-aminophenol] | increases | causes liver injury | increases | increases | 60 | – |
| CC(=O)N[C@@H](CS)C(=O)O [NAC, N-acetylcysteine] | – | – | – | – | – | 30 |
